Measured values reported in patent US20210137948A1, “TREATMENT OF INFECTIONS CAUSED BY NEISSERIA GONOCOCCUS USING A HALOGENATED SALICYLANILIDE” (priority 2018, published 2021).
Read-outs that look alike come from different tables or passages of the source.

What was measured:
[1] = tested on: Neisseria gonorrhoeae CDC panel consisting of 48 isolates; assay: Agar dilution MIC, CDC panel of 48 isolates (Example 2); assay type: cell-based; settings: for MIC: Neisseria gonorrhoeae, read-out: Minimal inhibitory concentration; for in vitro activity (in words): against N. gonococcus (N. gonorrhoeae), Example 2 conclusion
Protocol: Neisseria gonorrhoeae (Neisseria gonocossus) were tested for antimicrobial susceptibility using agar dilution as described by the Clinical and Laboratory Standards Institute (CLSI), see reference (4).
The concentrations tested for each compound encompass the reported interpretive breakpoints and consist of 8 or more doubling dilutions, ensuring that there is one dilution below the lowest value of QC.
GC agar base +1% defined growth supplement.
Initial screening strains: Neisseria gonorrhoeae CDC panel consisting of 48 isolates. The strains were provided by Clinical and Environmental Microbiology Branch, Division of Healthcare Quality Promotion, CDC (Atlanta, US).
Dilution scheme for reference method: Prepare intermediate 100× antimicrobial agent solutions by making successive serial twofold dilutions. Then, add one part of the 100× antimicrobial solution to […] of molten agar. Plates containing no antimicrobial agent solutions are made for use as growth controls. It is important that no longer than one hour elapses between the time that the stock solution is thawed, the dilutions are prepared and added to the base medium and the plates are poured, see reference (5).
• Add appropriate dilutions of antimicrobial solution to molten test agars that have been allowed to equilibrate in a water bath to 50° C. • Mix the agar and antimicrobial solution thoroughly and pour (20 mL) into Petri dishes on a level surface. Pour quickly after mixing to prevent cooling and partial solidification in the mixing container. Avoid generating bubbles when mixing. • Allow the agar to solidify at room temperature and store them in sealed plastic bags at 2 to 8° C. for up to five days. Preferably use with 24 hours. • Allow plates stored at 2 to 8° C. to equilibrate to room temperature before use. Make certain that the agar surface is dry before inoculating the plates. If necessary, place the plates in an incubator or laminar flow hood for approximately 30 minutes with their lids ajar to hasten drying of the agar surface.
Inoculum preparation: Prepare a standardized inoculum for the agar dilution method by suspending isolated colonies of Neisseria gonorrhoeae selected from an 18-24 hour-old chocolate agar plate directly in Mueller Hinton Broth (MHB) to achieve the density equivalent to a 0.5 McFarland standard and adjusted to obtain a cell density of ˜1-2×10^8 CFU/mL. For N. gonorrhoeae, the McFarland solutions are made at a reading of ˜0.80 in densitometer (Grant Instruments DEN-1B Densitometer) because these values have been evaluated and correspond to the desired CFU/mL count.
Dilution of inoculum suspension: Cultures adjusted to the 0.5 McFarland standard contain approximately 1 to 2×10^8 CFU/mL with most species, and the final inoculum required is 10^4 CFU per spot. When using replicators with 3-mm pins that deliver ˜2.5 μL, dilute the 0.5 McFarland suspension 1:10 in sterile MHB to obtain a concentration of 10^7 CFU/mL. The final inoculum on the agar will be approximately 10^4 CFU per spot. Use the adjusted suspensions for final inoculation within 60 minutes of preparation, see reference (5).
The following procedure was followed: • Arrange the tubes containing the adjusted and diluted bacterial suspensions (10^7 CFU/mL) in order in a rack. Place an aliquot of each well-mixed suspension into the corresponding well in the replicator inoculum block (if being used). • Mark the agar plates for orientation of the inoculum spots. • Apply an aliquot of each inoculum (2.5 μL) to the agar surface, either with an inocula-replicating device or pipette, to obtain a final concentration of ˜10^4 CFU/spot. • Inoculate a growth-control plate (no antimicrobial agent) first and then, starting with the lowest concentration, inoculate the plates containing the different antimicrobial concentrations. […]

[2] = tested on: rabbits; settings: p.o.; cited from earlier work
[3] = tested on: mice; settings: cited from earlier work
[4] = tested on: rats; settings: cited from earlier work; for LD50, median: median of the studies
[5] = Neisseria gonorrhoeae strain CDC # 165
[6] = Neisseria gonorrhoeae strain CDC # 166
[7] = Neisseria gonorrhoeae strain CDC # 167
[8] = Neisseria gonorrhoeae strain CDC # 169
[9] = Neisseria gonorrhoeae strain CDC # 170
[10] = Neisseria gonorrhoeae strain CDC # 171
[11] = Neisseria gonorrhoeae strain CDC # 172
[12] = Neisseria gonorrhoeae strain CDC # 173
[13] = Neisseria gonorrhoeae strain CDC # 174
[14] = Neisseria gonorrhoeae strain CDC # 175
[15] = Neisseria gonorrhoeae strain CDC # 176
[16] = Neisseria gonorrhoeae strain CDC # 177
[17] = Neisseria gonorrhoeae strain CDC # 178
[18] = Neisseria gonorrhoeae strain CDC # 179
[19] = Neisseria gonorrhoeae strain CDC # 180
[20] = Neisseria gonorrhoeae strain CDC # 181
[21] = Neisseria gonorrhoeae strain CDC # 182
[22] = Neisseria gonorrhoeae strain CDC # 183
[23] = Neisseria gonorrhoeae strain CDC # 184
[24] = Neisseria gonorrhoeae strain CDC # 185
[25] = Neisseria gonorrhoeae strain CDC # 186
[26] = Neisseria gonorrhoeae strain CDC # 187
[27] = Neisseria gonorrhoeae strain CDC # 188
[28] = Neisseria gonorrhoeae strain CDC # 189
[29] = Neisseria gonorrhoeae strain CDC # 190
[30] = Neisseria gonorrhoeae strain CDC # 191
[31] = Neisseria gonorrhoeae strain CDC # 192
[32] = Neisseria gonorrhoeae strain CDC # 193
[33] = Neisseria gonorrhoeae strain CDC # 194
[34] = Neisseria gonorrhoeae strain CDC # 195
[35] = Neisseria gonorrhoeae strain CDC # 196
[36] = Neisseria gonorrhoeae strain CDC # 198
[37] = Neisseria gonorrhoeae strain CDC # 199
[38] = Neisseria gonorrhoeae strain CDC # 200
[39] = Neisseria gonorrhoeae strain CDC # 201
[40] = Neisseria gonorrhoeae strain CDC # 202
[41] = Neisseria gonorrhoeae strain CDC # 203
[42] = Neisseria gonorrhoeae strain CDC # 204
[43] = Neisseria gonorrhoeae strain CDC # 205
[44] = Neisseria gonorrhoeae strain CDC # 206
[45] = Neisseria gonorrhoeae strain CDC # 207
[46] = Neisseria gonorrhoeae strain CDC # 208
[47] = Neisseria gonorrhoeae strain CDC # 209
[48] = Neisseria gonorrhoeae strain CDC # 210
[49] = Neisseria gonorrhoeae strain CDC # 211
[50] = Neisseria gonorrhoeae strain CDC # 212
[51] = Neisseria gonorrhoeae strain CDC # 213
[52] = Neisseria gonorrhoeae strain CDC # 214

O=C(Nc1cc(Cl)cc(Cl)c1O)c1c(O)c(Cl)cc(Cl)c1Cl [Oxyclosanide, oxyclozanide]
≤ 0.25 µg/mL: MIC [1, 5] | MIC [1, 6] | MIC [1, 7] | MIC [1, 8] | MIC [1, 9] | MIC [1, 10] | MIC [1, 11] | MIC [1, 12] | MIC [1, 13] | MIC [1, 14] | MIC [1, 15] | MIC [1, 16] | MIC [1, 17] | MIC [1, 18] | MIC [1, 19] | MIC [1, 20] | MIC [1, 21] | MIC [1, 22] | MIC [1, 23] | MIC [1, 24] | MIC [1, 25] | MIC [1, 26] | MIC [1, 27] | MIC [1, 28] | MIC [1, 29] | MIC [1, 30] | MIC [1, 31] | MIC [1, 32] | MIC [1, 33] | MIC [1, 34] | MIC [1, 35] | MIC [1, 36] | MIC [1, 37] | MIC [1, 38] | MIC [1, 39] | MIC [1, 40] | MIC [1, 41] | MIC [1, 42] | MIC [1, 43] | MIC [1, 44] | MIC [1, 45] | MIC [1, 46] | MIC [1, 47] | MIC [1, 48] | MIC [1, 49] | MIC [1, 50] | MIC [1, 51] | MIC [1, 52]
300 mg/kg: LD50 ([3]; p.o.)
980 to 3519 mg/kg: LD50 ([4]; p.o.)
3200 mg/kg: LD50 [2]
Good in vitro activity: in vitro activity (in words) [1]
2250 mg/kg: LD50, median ([4]; p.o.)

Cc1cc(C(C#N)c2ccc(Cl)cc2)c(Cl)cc1NC(=O)c1cc(I)cc(I)c1O (centres unmarked) [Closantel, closantel]
57 mg/kg: LD50 ([3]; i.m.)
0.5 µg/mL: MIC [1, 12] | MIC [1, 42]
67 mg/kg: LD50 ([4]; s.c.)
302 mg/kg: LD50, median ([4]; p.o.)
4 µg/mL: MIC [1, 16]
8 µg/mL: MIC [1, 5]
262 to 342 mg/kg: LD50 ([4]; p.o.)
331 mg/kg: LD50 ([3]; p.o.)
≤ 0.25 µg/mL: MIC [1, 6] | MIC [1, 7] | MIC [1, 8] | MIC [1, 9] | MIC [1, 10] | MIC [1, 11] | MIC [1, 13] | MIC [1, 14] | MIC [1, 15] | MIC [1, 17] | MIC [1, 18] | MIC [1, 19] | MIC [1, 20] | MIC [1, 21] | MIC [1, 22] | MIC [1, 23] | MIC [1, 24] | MIC [1, 25] | MIC [1, 26] | MIC [1, 27] | MIC [1, 28] | MIC [1, 29] | MIC [1, 30] | MIC [1, 31] | MIC [1, 32] | MIC [1, 33] | MIC [1, 34] | MIC [1, 35] | MIC [1, 36] | MIC [1, 37] | MIC [1, 38] | MIC [1, 39] | MIC [1, 40] | MIC [1, 41] | MIC [1, 43] | MIC [1, 44] | MIC [1, 45] | MIC [1, 46] | MIC [1, 47] | MIC [1, 48] | MIC [1, 49] | MIC [1, 50] | MIC [1, 51] | MIC [1, 52]
Good in vitro activity: in vitro activity (in words) [1]
